The results in this text go back to a melting point compilation (Tetko et al.; mined from patent text by program, amines drawn as free bases though some values may be those of a salt).

Molecules are shown by their SMILES. Some results are limits rather than exact numbers.

With `O=C1CCC2C3Cc4ccc(O)c5c4C2(CC[N+]3([O-])CC2CC2)C1O5` (stereo unspecified), the melting point lay within 209 to 211 °C. As to `CCn1c(=O)c2[nH]c(-c3ccc(S(=O)(=O)N4CCN(C)CC4)cc3)nc2n(CC)c1=O`, the melting point was 305 to 307 °C. Consider `NNC(=O)Cc1cc(C(=O)c2ccc(I)c(N)c2)sc1-c1ccccc1`, for which the melting point lay in the range of 159 to 165 °C. As for `CN1CCN(N=C2CC(c3ccc(C(F)(F)F)cc3)Cc3c2c(=O)c2cc(Cl)ccc2n3O)CC1` (stereo unspecified), the melting point came out at 213 °C. `N#CC(C#N)=CNc1ccc(C(N)=O)cn1`: the melting point was 215 to 218 °C. Compound `COc1ccc(/C(=C/C=C/C(=O)Oc2ccc([N+](=O)[O-])cc2)c2cccs2)cc1` had a melting point of 113 to 115 °C.

For `OCC1CCc2[nH]c3ccc(F)cc3c2C1` (stereo unspecified), the melting point is 107 to 109 °C. `Nc1ccc(-c2noc(-c3cnn4c(C(F)F)cc(-c5ccc(C(F)(F)F)c(Cl)c5)nc34)n2)cn1` returned a melting point of 252 °C. As to `CCCCCCN1C(=O)C(=CC(=O)O)SC1=Nc1cccc2ccccc12`, the melting point lay within 144 to 145 °C. Compound `CCN(CCC12CC3CC(CC(C3)C1)C2)C(=O)NCCCc1ccncc1` displayed a melting point of 106 to 115 °C. In the case of `Cc1nc(Cl)c([N+](=O)[O-])c(N2CCc3ccccc3CC2)n1`, the melting point was in the range of 161 to 165 °C. `CSC(=N)NS(=O)(=O)c1c(Cl)sc(Cl)c1Br` returned a melting point of 113 to 115 °C.

`CCN(CC)CCNS(=O)(=O)c1ccc(Nc2ncnc3ccc(Cl)cc23)cc1` yielded a melting point of 110 to 113 °C.

In the case of `COc1ccc(C2=CCN(Cc3n[nH]c4c(Cl)cccc34)CC2)cc1`, the melting point lay in the range of 201 to 203 °C. With `O=c1c2ccccc2n(CCCCN2CCC(OC(c3ccccc3)c3ccccc3)CC2)c(=O)n1CCO`, the melting point lay in the range of 145 to 150 °C.

On to `CNc1cc(NS(=O)(=O)c2ccc(NC(C)=O)cc2)nc(N2CCCC2)n1`, for which the melting point was 271 to 274 °C. `CSc1cc2c(cc1C(F)(F)F)N(C(=O)Nc1ccc(-c3csc(-c4cccnc4)n3)cc1)CC2` gave a melting point of over 25 °C. With `Cc1c(CCN(C)C)c2cc(S(=O)(=O)c3ccccc3)ccc2n1C` the figure was 170 to 172 °C. The result for `COc1cccc(C2(O)c3c(C)c(NC(=O)CC(C)(C)C)c(C)c(C)c3OC2(C)C)c1` (stereo unspecified) reads 154 to 155 °C. On to `O=C1C(O)=C(C2CCC(c3ccc(Cl)cc3)CC2)C(=O)c2ccccc21` (stereo unspecified), for which the melting point is 216 to 219 °C.

For the compound `Cc1cc2ccccc2c(-c2ccc(I)cc2)n1`, the melting point is 146 to 147 °C. As for `COc1ccc(C(=O)Cc2c(Cl)cncc2Cl)c2c1OC(C)(C)C2`, the melting point lay in the range of 127 to 131 °C. Consider `COc1cc(COc2cc(CC#N)n(-c3ccccc3)n2)ccc1OCc1nc(-c2ccco2)oc1C`, for which the melting point was in the range of 141 to 142 °C. As to `CCCCNC(=O)[C@H](C)C[C@H](O)[C@H](CC1CCCCC1)NC(=O)[C@H](Cc1cscn1)NC(=O)[C@@H](CC(=O)N(C)Cc1ccccc1)Cc1ccc(OC)cc1`, the melting point lay within 112 to 114 °C.

Compound `CC#CCOc1ccc(SC(C(=O)NO)c2ccc3ccccc3c2)cc1` (stereo unspecified) registered a melting point of 148 °C.

The compound `CCN(CC)S(=O)(=O)c1cc(Cl)c(Cl)c(Cl)c1SCSC#N` had a melting point of 83 to 85 °C. On to `O=C(c1ccc(Cl)c([N+](=O)[O-])c1)c1ccc(F)cc1F`, for which the melting point is 90.5 °C. As for `Cn1cnc(=O)c(-c2cccc(Br)c2)c1`, the melting point was in the range of 120 to 121 °C. The compound `CCOC(=O)Cn1c(C)c(-c2ccnc3cc(Cl)ccc23)c2cc(NC(C)=O)ccc21` displayed a melting point of 281 to 284 °C. For the compound `CNS(=O)(=O)c1cc(OC)c(OC)c(C(=O)NCC2CCCN2CC2CC2)c1` (stereo unspecified), the melting point lay within 110 to 112 °C. Regarding `O=C(O)c1cc([N+](=O)[O-])ccc1-c1ccc([N+](=O)[O-])cc1C(=O)O`, the melting point lay within 255 to 258 °C. The compound `c1ccc(C2=N[C@@H](CCP(c3ccccc3)c3ccccc3)CO2)cc1` displayed a melting point of 52.5 to 54 °C. The result for `CCn1cc(-c2cc(-c3nc(C(C)C)[nH]c3-c3cccc(C)n3)ccc2F)cn1` reads 76 to 78 °C. Regarding `O=C1C2C3C=CC(C4CC34)C2C(=O)N1c1ccc([N+](=O)[O-])cc1` (stereo unspecified), the melting point lay in the range of 210 to 212 °C. Regarding `CCCc1c2c(c(OC)c3c(=O)cc(C(=O)OC)oc13)CCCC2`, the melting point was 92 to 93 °C. Consider `COC(=O)NC1CCc2ccc(Cl)cc2C1=O` (stereo unspecified), for which the melting point lay within 126 to 127 °C.

`CNC(=S)C1(c2cncc(Br)c2)CCCCC1=O` (stereo unspecified) displayed a melting point of 201 to 203 °C. For `O=C(N[C@H](CC1CCCCC1)CN1CCN(c2nccc3ccccc23)CC1)C1CCCCC1`, the melting point lay in the range of 155 to 159 °C. In turn, `CSc1ccc(-n2cnc3ccc(-c4nnc(N)o4)cc32)cc1` had a melting point of 254 to 255 °C.

With `COc1ccc(CCNC(=O)C(F)(F)F)c2c1NC(=O)C2=O`, the melting point was 234 to 237 °C. For the compound `CC(C)c1nn(-c2ccc(C(F)(F)F)cc2)cc1CO`, the melting point lay in the range of 84 to 85 °C. In turn, `O=C(OCCCc1nc(-c2ccc(Cl)cc2)co1)c1ccccc1` returned a melting point of 47 to 47.5 °C. With `O=C(O)COc1ccccc1N1CCN(c2ccncc2)CC1` the figure was 294 to 296 °C; with `CCN(CC)CCNC(=O)c1ccc(Nc2nccc(-c3cccnc3)n2)cc1`, 148 to 150 °C.

`C(=Nc1cccc2ccccc12)=Nc1cccc2ccccc12` came in with a melting point of 91 °C. For the compound `C[Si](C)(C)C#Cc1c(C#N)nn(-c2c(Cl)cc(OC(F)(F)F)cc2Cl)c1N`, the melting point came to 152 °C. The compound `CC(C)(OCc1n[nH]c2ccc([N+](=O)[O-])cc12)C(=O)O` registered a melting point of 210 °C.

As to `CCOC(=O)c1ccc(-c2ccc(Cl)cc2)[nH]1`, the melting point is 148 °C. In the case of `NCCN1CCC(Nc2nc3cccnc3n2Cc2ccccn2)CC1`, the melting point turned out to be 151 °C. On to `CN1CCN(S(=O)(=O)c2cc(NC(=O)c3cnn4c(C(F)F)cc(-c5ccc(C(F)(F)F)cc5)nc34)c(Cl)s2)CC1`, for which the melting point turned out to be 293 °C.

Turning to `O=C1CCC(CCCOC2CCOCC2)(c2ccc(Cl)c(Cl)c2)CN1` (stereo unspecified), the melting point was found to be 45 °C. In turn, `CC1(C=O)COC2(CCCCCCCCCCC2)OO1` (stereo unspecified) gave a melting point of 88 to 89 °C.

For the compound `O=CNc1nc(S(=O)(=O)Cl)n[nH]1`, the melting point was in the range of 194 to 196 °C. The compound `CCCCCCCCCCNC(=O)C1=C(C(=O)Nc2cc(OC3CCCC3)c(Cl)cc2F)CCCC1` displayed a melting point of 128 to 130 °C. For `O=C(/C=C/c1ccccc1Cl)Nc1ccc(-n2nc(C(F)(F)F)cc2C(F)(F)F)cc1`, the melting point was in the range of 173 to 175 °C. With `CCc1c(OC)nc(OC)nc1C(=O)c1cc(Cl)cc(Cl)c1` the figure was 118 to 119 °C; with `CCCCC1=NC2(CCCC2)C(=O)N1Cc1ccc(-c2ccccc2S(=O)(=O)Nc2noc(C)c2C)c(COCCF)c1`, 68 to 73 °C. In turn, `Cc1cc2c(cc1Sc1ccc(C(=O)O)cn1)C(C)(C)CCC2(C)C` gave a melting point of 257 to 260 °C. The compound `COc1ccc(C(=O)Nc2c(C)c(C)c3c(c2C)C(c2ccc(C(C)C)cc2)C2(CCN(C)CC2)O3)cc1` (stereo unspecified) registered a melting point of 277 to 278 °C.

Compound `O=C1N(CC2CCC2)c2ccccc2C1(O)c1ccc2c(c1)OCO2` (stereo unspecified) had a melting point of 124 to 125 °C. The compound `CCN[C@H]1CCC[C@H](Oc2ccc3[nH]ncc3c2C)C1` (relative stereo) showed a melting point of 95 to 97 °C.

What is called melting point is the temperature of the solid-liquid transition.
